Assay results taken from ChEMBL document CHEMBL5727056, “Substituted indazoles, methods for the production thereof, pharmaceutical preparations that contain said new substituted indazoles, and use of said new substituted indazoles to produce drugs” (2019).

Target: T1, Interleukin-1 receptor-associated kinase 4 (Homo sapiens, UniProt Q9NWZ3)
T1 sequence (Q9NWZ3 whole entry): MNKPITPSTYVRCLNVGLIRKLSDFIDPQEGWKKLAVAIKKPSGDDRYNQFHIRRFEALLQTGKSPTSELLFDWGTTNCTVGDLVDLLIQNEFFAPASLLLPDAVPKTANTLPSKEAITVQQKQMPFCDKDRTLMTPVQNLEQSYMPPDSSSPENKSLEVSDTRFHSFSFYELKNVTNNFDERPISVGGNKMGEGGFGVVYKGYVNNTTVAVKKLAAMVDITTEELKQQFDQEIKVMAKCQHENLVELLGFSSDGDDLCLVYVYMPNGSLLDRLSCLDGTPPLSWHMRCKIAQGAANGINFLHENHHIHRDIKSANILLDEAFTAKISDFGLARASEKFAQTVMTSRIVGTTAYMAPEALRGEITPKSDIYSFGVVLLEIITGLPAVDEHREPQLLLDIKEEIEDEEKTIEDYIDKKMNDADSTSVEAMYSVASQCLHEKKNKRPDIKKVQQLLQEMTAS
Test: IRAK4 Kinase Assay: For the assay, 11 different concentrations in the range from 20 μM to 0.073 nM were prepared from a 2 mM DMSO solution of the test substance. 50 nl of the respective solution were pipetted into a black low-volume 384-well microtitre plate (Greiner Bio-One, Frickenhausen, Germany), 2 μl of a solution of IRAK4 in assay buffer [50 mM HEPES pH 7.5, 5 mM MgCl2, 1.0 mM …

IC50: 136 nM
SMILES: COCCn1cc2cc(NC(=O)c3cccc(C(F)(F)F)n3)c(CO)cc2n1
